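Grown in 96-well plates, cells were treated for 48 hours with each compound at five concentrations. Insufficient inhibition: endpoint recorded as highest concentration tested. Definition used: TGI = concentration required for complete inhibition of growth.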
System: P388 leukemia
Assay: NCI tumour cell line growth inhibition, 48 h

For `Nc1nc(F)nc2c1ncn2C1OC(COP(=O)(O)O)C(O)C1O` (stereo unspecified), the TGI was 150 µM.

From PubChem BioAssay (NCI)
